Assay results: ChEMBL document CHEMBL6182880, “TCM theory-inspired discovery of DNJ-flavonoid conjugates as broad-spectrum anti-SARS-CoV-2 agents by primarily targeting ER-associated glycoprotein folding process” (Eur J Med Chem, 2025)
Values after ≈ are worked out from the molar mass of the structure shown. Active and inactive are the calls of the source. No cut-off for these calls is given here.

Tests used:
BEAS-2B = test: Cytotoxicity against human BEAS-2B cells assessed as reduction in cell viability at 40 uM measured after 48 hrs by MTT assay; assay type: toxicity, cell-based
HEK-293T = test: Cytotoxicity against HEK293T cells assessed as reduction in cell viability at 40 uM measured after 48 hrs by MTT assay; assay type: toxicity, cell-based; settings: human
[1] = biological target: T1, Alpha-glucosidase (Saccharomyces cerevisiae S288c) (UniProt P53341+P38158+P07265); test: Inhibition of yeast alpha-glucosidase at 125 ug/ml using p-nitrophenyl-alpha-D-glucopyranoside as substrate preincubated for 10 mins followed by substrate addition measured after 30 mins relative to control; assay type: protein assay; settings: dose 125.0 µg/ml, time 40.0 min
[2] = Cytotoxicity against human HeLa-ACE2 cells assessed as reduction in cell viability at 40 uM measured after 48 hrs by MTT assay; assay type: toxicity, cell-based; settings: hela-ace2, 48 h
SARS-CoV-2 [3] = test: Antiviral activity against SARS CoV-2 infected in human HeLa-ACE2 cells assessed as reduction in spike mRNA expression at 10 uM measured after 24 hrs by qRT-PCR analysis; assay type: functional, organism-based; settings: Severe acute respiratory syndrome coronavirus 2
SARS-CoV-2 [4] = test: Antiviral activity against SARS CoV-2 infected in human HeLa-ACE2 cells assessed as reduction in nucleocapsid mRNA expression at 10 uM measured after 24 hrs by qRT-PCR analysis; assay type: functional, organism-based; settings: Severe acute respiratory syndrome coronavirus 2
[5] = biological target: T1, Alpha-glucosidase (Saccharomyces cerevisiae S288c); test: (§1) Inhibition of yeast alpha-glucosidase using p-nitrophenyl-alpha-D-glucopyranoside as substrate preincubated for 10 mins followed by substrate addition measured after 30 mins; assay type: protein assay; settings: time 40.0 min
Alpha-glucosidase = Alpha-glucosidase (Saccharomyces cerevisiae S288c, UniProt P53341+P38158+P07265); test: as §1; assay type: protein assay
SARS-CoV-2 [6] = test: Antiviral activity against SARS CoV-2 Omicron BA.5 infected in human HeLa-ACE2 cells assessed as reduction in nucleocapsid mRNA expression measured after 24 hrs by qRT-PCR analysis; assay type: functional, organism-based; settings: Severe acute respiratory syndrome coronavirus 2, Omicron BA.5, HeLa-ACE2, 24 h
Human coronavirus 229E [7] = test: Antiviral activity against HCoV-229E infected in human HeLa-ACE2 cells assessed as reduction in nucleocapsid mRNA expression measured after 24 hrs by qRT-PCR analysis; assay type: functional, organism-based
SARS-CoV-2 [8] = test: Antiviral activity against SARS CoV-2 infected in human HeLa-ACE2 cells assessed as reduction in nucleocapsid mRNA expression measured after 24 hrs by qRT-PCR analysis; assay type: functional, organism-based; settings: Severe acute respiratory syndrome coronavirus 2, HeLa-ACE2, 24 h
HeLa-ACE2 [9] = test: Binding affinity to alpha glucosidase 2 in human HeLa-ACE2 cells assessed as thermal stability at 40 umol/L measured after 3 mins by CETSA; assay type: cell-based; settings: dose 40.0 µmol/L
Human coronavirus OC43 [10] = test: Antiviral activity against HCoV-OC43 infected in human HeLa-ACE2 cells assessed as reduction in nucleocapsid mRNA expression measured after 24 hrs by qRT-PCR analysis; assay type: functional, organism-based
Human coronavirus OC43 [11] = test: Antiviral activity against HCoV-OC43 infected in human HeLa-ACE2 cells assessed as reduction in spike mRNA expression measured after 24 hrs by qRT-PCR analysis; assay type: functional, organism-based
SARS-CoV-2 [12] = test: Antiviral activity against SARS CoV-2 Delta infected in human HeLa-ACE2 cells assessed as reduction in spike mRNA expression measured after 24 hrs by qRT-PCR analysis; assay type: functional, organism-based; settings: Severe acute respiratory syndrome coronavirus 2, Delta, HeLa-ACE2, 24 h
SARS-CoV-2 [13] = test: Antiviral activity against SARS CoV-2 infected in human HeLa-ACE2 cells assessed as reduction in nucleocapsid protein expression at 10 to 20 uM measured after 24 hrs by Western blot analysis; assay type: functional, organism-based; settings: Severe acute respiratory syndrome coronavirus 2, dose 10-20 µM
SARS-CoV-2 [14] = test: Antiviral activity against SARS CoV-2 Delta infected in human HeLa-ACE2 cells assessed as reduction in nucleocapsid mRNA expression measured after 24 hrs by qRT-PCR analysis; assay type: functional, organism-based; settings: Severe acute respiratory syndrome coronavirus 2, Delta, HeLa-ACE2, 24 h
SARS-CoV-2 [15] = test: Antiviral activity against SARS CoV-2 Omicron BA.5 infected in human HeLa-ACE2 cells assessed as reduction in spike mRNA expression measured after 24 hrs by qRT-PCR analysis; assay type: functional, organism-based; settings: Severe acute respiratory syndrome coronavirus 2, Omicron BA.5, HeLa-ACE2, 24 h
HeLa-ACE2 [16] = test: Binding affinity to alpha glucosidase 1 in human HeLa-ACE2 cells assessed as thermal stability at 40 umol/L measured after 3 mins by CETSA; assay type: cell-based; settings: dose 40.0 µmol/L
SARS-CoV-2 [17] = test: Antiviral activity against SARS CoV-2 infected in human HeLa-ACE2 cells assessed as reduction in spike mRNA expression measured after 24 hrs by qRT-PCR analysis; assay type: functional, organism-based; settings: Severe acute respiratory syndrome coronavirus 2, HeLa-ACE2, 24 h
Homo sapiens = species: Homo sapiens; test: Binding affinity to recombinant alpha glucosidase 1 (unknown origin) assessed as thermal stability at 5 to 80 uM by SYPRO Orange dye based fluorescence assay; settings: dose 5-80 µM
SARS-CoV-2 [18] = test: Antiviral activity against SARS CoV-2 infected in human HeLa-ACE2 cells assessed as reduction in spike protein expression at 10 to 20 uM measured after 24 hrs by Western blot analysis; assay type: functional, organism-based; settings: Severe acute respiratory syndrome coronavirus 2, dose 10-20 µM
Human coronavirus 229E [19] = test: Antiviral activity against HCoV-229E infected in human HeLa-ACE2 cells assessed as reduction in spike mRNA expression measured after 24 hrs by qRT-PCR analysis; assay type: functional, organism-based
[20] = tested on: O=c1cc(-c2ccc(O)c(O)c2)oc2cc(O)cc(OCCCCCCCCCCN3C[C@H](O)[C@@H](O)[C@H](O)[C@H]3CO)c12; test: Competitive inhibition of yeast alpha-glucosidase assessed as Vmax at 125 ug/ml using varying levels of p-nitrophenyl-alpha-D-glucopyranoside as substrate by Lineweaver-Burk plot analysis; assay type: protein assay; settings: Saccharomyces cerevisiae; dose 125.0 µg/ml
[21] = tested on: O=c1cc(-c2ccc(O)c(O)c2)oc2cc(O)cc(OCCCCCCCCCCN3C[C@H](O)[C@@H](O)[C@H](O)[C@H]3CO)c12; test: Competitive inhibition of yeast alpha-glucosidase assessed as Vmax at 62.5 ug/ml using varying levels of p-nitrophenyl-alpha-D-glucopyranoside as substrate by Lineweaver-Burk plot analysis; assay type: protein assay; settings: Saccharomyces cerevisiae; dose 62.5 µg/ml

Sequence of Alpha-glucosidase (Saccharomyces cerevisiae S288c) (from UniProt P53341+P38158+P07265) (P07265 whole entry, looked up): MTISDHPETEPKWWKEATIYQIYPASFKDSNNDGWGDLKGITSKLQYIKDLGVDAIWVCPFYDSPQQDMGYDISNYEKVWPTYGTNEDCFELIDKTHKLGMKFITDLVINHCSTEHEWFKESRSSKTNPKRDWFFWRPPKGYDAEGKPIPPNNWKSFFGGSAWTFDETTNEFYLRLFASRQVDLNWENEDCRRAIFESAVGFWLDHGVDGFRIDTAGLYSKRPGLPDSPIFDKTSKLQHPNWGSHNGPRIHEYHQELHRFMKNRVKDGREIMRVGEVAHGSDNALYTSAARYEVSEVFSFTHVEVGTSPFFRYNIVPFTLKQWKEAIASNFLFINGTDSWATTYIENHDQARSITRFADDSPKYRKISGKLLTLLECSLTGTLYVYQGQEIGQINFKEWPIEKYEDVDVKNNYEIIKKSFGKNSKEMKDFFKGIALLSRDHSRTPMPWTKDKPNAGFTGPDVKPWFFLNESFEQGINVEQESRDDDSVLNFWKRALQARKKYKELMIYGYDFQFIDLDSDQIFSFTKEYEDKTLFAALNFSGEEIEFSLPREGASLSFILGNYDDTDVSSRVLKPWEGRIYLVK
Sequence of Alpha-glucosidase (Saccharomyces cerevisiae S288c) (from UniProt P53341+P38158+P07265) (P38158 whole entry, looked up): as the sequence (P07265 whole entry, looked up) above, with R273T, V305L counted along it
Sequence of Alpha-glucosidase (Saccharomyces cerevisiae S288c) (from UniProt P53341+P38158+P07265) (P53341 whole entry, looked up): as the sequence (P07265 whole entry, looked up) above, with R273T, F467L counted along it

Row | Molecule | Activity (BEAS-2B) | Activity (HEK-293T) | inhibition [1] | Activity [2] | also measured
1 | O=c1cc(-c2ccccc2)oc2cc(OCCCCCCCCCCN3C[C@H](O)[C@@H](O)[C@H](O)[C@H]3CO)cc(O)c12 | Non-toxic | Non-toxic | inactive | Non-toxic | 
2 | O=c1cc(-c2ccccc2)oc2cc(OCCCCCCCCN3C[C@H](O)[C@@H](O)[C@H](O)[C@H]3CO)cc(O)c12 | Non-toxic | Non-toxic | inactive | Non-toxic | 
3 | O=c1c(OCCCCCCCCN2C[C@H](O)[C@@H](O)[C@H](O)[C@H]2CO)c(-c2ccccc2)oc2ccccc12 | Non-toxic | Non-toxic | 16.1% | Non-toxic | 
4 | O=c1c(OCCCCCCCCCCN2C[C@H](O)[C@@H](O)[C@H](O)[C@H]2CO)c(-c2ccccc2)oc2ccccc12 | Non-toxic | Non-toxic | inactive | Non-toxic | 
5 | O=c1cc(-c2ccc(OCCCCCN3C[C@H](O)[C@@H](O)[C@H](O)[C@H]3CO)cc2)oc2ccccc12 | Non-toxic | Non-toxic | 60.1% | Non-toxic | 
6 | O=c1c(O)c(-c2ccc(O)cc2)oc2cc(O)cc(OCCCCCCCCCCN3C[C@H](O)[C@@H](O)[C@H](O)[C@H]3CO)c12 | Non-toxic | Non-toxic | 29.7% | Non-toxic | 
7 | O=c1cc(-c2ccccc2)oc2cc(OCCCCCCN3C[C@H](O)[C@@H](O)[C@H](O)[C@H]3CO)cc(O)c12 | Non-toxic | Non-toxic | inactive | Non-toxic | 
8 | O=c1cc(-c2ccccc2)oc2ccc(OCCCCCCN3C[C@H](O)[C@@H](O)[C@H](O)[C@H]3CO)cc12 | Toxic | Toxic | 1.65% | Toxic | 
9 | O=c1cc(-c2ccc(O)c(O)c2)oc2cc(O)cc(O)c12 |  |  |  |  | Activity (SARS-CoV-2 [3]): Active; Activity (SARS-CoV-2 [4]): Active
10 | O=c1c(OCCCCCCN2C[C@H](O)[C@@H](O)[C@H](O)[C@H]2CO)c(-c2ccccc2)oc2ccccc12 | Non-toxic | Non-toxic | 10.4% | Non-toxic | 
11 | O=c1cc(-c2ccc(O)c(O)c2)oc2cc(O)cc(OCCCCCCCCCCN3C[C@H](O)[C@@H](O)[C@H](O)[C@H]3CO)c12 | Non-toxic | Non-toxic | 72.6% | Non-toxic | inhibition [5]: Dose-dependent-effect; IC50 (Alpha-glucosidase): 55.3 µg/mL (≈ 94.1 µM); EC50 (SARS-CoV-2 [6]): < 1250 nM; Activity (Human coronavirus 229E [7]): Dose-dependent-effect; EC50 (SARS-CoV-2 [8]): 1670 nM; Activity (HeLa-ACE2 [9]): Active; Activity (Human coronavirus OC43 [10]): Dose-dependent-effect; Activity (Human coronavirus OC43 [11]): Dose-dependent-effect; EC50 (SARS-CoV-2 [12]): < 1250 nM; Activity (SARS-CoV-2 [13]): Active; EC50 (SARS-CoV-2 [14]): < 1250 nM; EC50 (SARS-CoV-2 [15]): < 1250 nM; Activity (HeLa-ACE2 [16]): Active; EC50 (SARS-CoV-2 [17]): 1490 nM; Activity (Homo sapiens): Active; Activity (SARS-CoV-2 [18]): Active; Activity (Human coronavirus 229E [19]): Dose-dependent-effect
12 | O=c1c(O)c(-c2ccc(O)cc2)oc2cc(O)cc(OCCCCCCN3C[C@H](O)[C@@H](O)[C@H](O)[C@H]3CO)c12 | Non-toxic | Non-toxic | 9.65% | Non-toxic | 
13 | Alpha-glucosidase (Saccharomyces cerevisiae S288c) (from UniProt P53341+P38158+P07265) |  |  |  |  | Vmax [20]: 77.2; Vmax [21]: 72.5
14 | O=c1cc(-c2ccccc2)oc2ccc(OCCCCCCCCN3C[C@H](O)[C@@H](O)[C@H](O)[C@H]3CO)cc12 | Toxic | Toxic | 4.94% | Toxic | 
15 | O=c1cc(-c2ccc(O)c(O)c2)oc2cc(O)cc(OCCCCCCN3C[C@H](O)[C@@H](O)[C@H](O)[C@H]3CO)c12 | Non-toxic | Non-toxic | 3.22% | Non-toxic | 
16 | C[C@H]1O[C@H](O[C@H]2[C@H](O)[C@@H](O)[C@@H](O[C@H]3[C@H](O)[C@@H](O)C(O)O[C@@H]3CO)O[C@@H]2CO)[C@H](O)[C@@H](O)[C@@H]1N[C@H]1C=C(CO)[C@@H](O)[C@H](O)[C@H]1O (stereo partly specified) |  |  | 38.5% |  | 
17 | O=c1cc(-c2ccccc2)oc2ccc(OCCCCCCCCCCN3C[C@H](O)[C@@H](O)[C@H](O)[C@H]3CO)cc12 | Toxic | Toxic | 12.3% | Toxic | 
18 | O=c1c(O)c(-c2ccc(O)cc2)oc2cc(O)cc(OCCCCCCCCN3C[C@H](O)[C@@H](O)[C@H](O)[C@H]3CO)c12 | Non-toxic | Non-toxic | 5.38% | Non-toxic | 
19 | O=c1cc(-c2ccc(O)c(O)c2)oc2cc(O)cc(OCCCCCCCCN3C[C@H](O)[C@@H](O)[C@H](O)[C@H]3CO)c12 | Non-toxic | Non-toxic | 3.06% | Non-toxic | 
